According to patent publication US20050070496A1, “Semi-solid formulations for the oral administration of taxoids” (Aventis Pharma S. A., priority 2003, published 2005):
Marks after values point to notes of the source that are not given here.

How the values were obtained:
[1] = Solubility of taxoid of formula Ib in liquid excipients; assay type: physicochemical
Source text: After a first selection of proper excipients (in terms of safety and developability), the solubility of taxoids in the excipient was the first screening step for the choice of the excipient and the selection of the prototypes. Then, the prototypes (liquid or semi-solid) were manufactured, and characterized in terms of in vitro behavior in simulated GI media and chemical stability. Finally, the physical properties and stability of the semi-solid prototypes have been investigated.

[2] = Solubility in semi-solid excipients (at the melted state) and solid excipients
Source text: The solubility of taxoid of formula Ib at room temperature has been determined by X ray diffraction.

Compound `CC(=O)O[C@H]1C(=O)[C@]23C[C@H]2C[C@H]2OC[C@@]2(OC(C)=O)[C@H]3[C@H](OC(=O)c2ccccc2)[C@]2(O)C[C@H](OC(=O)[C@H](O)[C@@H](NC(=O)OC(C)(C)C)c3ccccc3)C(C)=C1C2(C)C` [taxoid of formula Ib] has a Solubility ([1]; in Capryol 90 (Polyethylene glycol monocaprylate)) of 281 mg/g, a Solubility ([1]; in Cremophor EL (POE hydrogenated castor oil)) of 94 mg/g and a Solubility ([1]; in Crossential O94 (Oleic acid)) of 37 mg/g. For the same compound, the Solubility ([1]; in Edenor C8 98-100 (Caprylic acid)) was 138 mg/g, the Solubility ([1]; in Ethanol) was 250 mg/g and the Solubility ([1]; in HPβ cyclodextrin) was 0.28 mg/g. It also gave a Solubility ([1]; in Labrafil M1944 CS (oleyl macrogol-6-glycerides)) of 52 mg/g, a Solubility ([1]; in Labrasol (Caprylocaproyl macrogol-8 glycerides)) of 244 mg/g and a Solubility ([1]; in Lauroglycol 129 (PG monolaurate)) of 129 mg/g. For the same compound, the Solubility ([1]; in Maisine 35-1 (Glyceryl linoleate)) was 129 mg/g, the Solubility ([1]; in Miglyol 812N (caprylic/capric triglyceride)) was 65 mg/g and the Solubility ([1]; in PEG 400 (polyethylene glycol 400)) was 121 mg/g. The Solubility ([1]; in PS 80 VG (POE monooleate)) was 144 mg/g, the Solubility ([1]; in PS 80 VG pH 6 (POE monooleate)) was 135 mg/g and the Solubility ([1]; in Peceol (Glyceryl monooleate)) was 106 mg/g. For the same compound, the Solubility ([1]; in Phosal 50 PG (Phosphatidylcholine ≧ 50% in propylene glycol)) was 27 mg/g, the Solubility ([1]; in Phosal 50 SA (Phosphatidylcholine 50 ± 3% in alcohol, safflower oil, glyceryl stearate, coconut oil and ascorbyl palmitate)) was 97 mg/g and the Solubility ([1]; in Phosal 75 SA (Phosphatidylcholine 75 ± 3% in alcohol, safflower oil, glyceryl stearate, coconut oil and ascorbyl palmitate)) was 122 mg/g. The Solubility ([1]; in Plurol diisostearic) was 23 mg/g, the Solubility ([1]; in Plurol oleic CC497 (Polyglyceryl 6 oleate)) was 42 mg/g and the Solubility ([1]; in Soybean oil (glycerides, linoleic acid 50-57%)) was 16 mg/g. It also gave a Solubility ([1]; in Transcutol (Diethylene glycol monoethyl ether)) of 197 mg/g, a Solubility ([2]; in Gelucire 44/14 (lauroyl macrogol-32 glycerides), excipient melted up to 70° C.) of 96 mg/g and a Solubility ([2]; in Imwitor 988 (Glyceryl mono-dicaprylate), semi-solid excipient melted up to 70° C.) of 283 mg/g. For the same compound, the Solubility ([2]; in Myrj 45 (POE stearate), excipient melted up to 70° C.) was 128 mg/g, the Solubility ([2]; in PEG 4000 (polyethylene glycol 1500), excipient melted up to 70° C.) was >50* mg/g and the Solubility ([2]; in Vitamin E TPGS (α-tocopherol PEG succinate), excipient melted up to 70° C.) was 73 mg/g.
